According to US9120744B2, “Plasminogen activator inhibitor-1 inhibitors and methods of use thereof to modulate lipid metabolism” (THE REGENTS OF THE UNIVERSITY OF MICHIGAN, priority 2007, dated 2015):

How the values were obtained:
[1] = molecular target: T1, recombinant active human PAI-1 (Homo sapiens (Human), UniProt P05121); test: Fluorometric IC50 plate assay (PAI-1 inhibition of uPA, Z-Gly-Gly-Arg-AMC); assay type: biochemical; conditions: in vitro, PAI-1 1 nM, uPA 2.5 nM, pH 7.8, 10% DMSO; ND = not detected, e.g. no inhibition
PAI-1 [2] = molecular target: T2, PAI-1 (Homo sapiens (Human), UniProt P05121); test: Surface plasmon resonance, loss of PAI-1 binding to immobilized anhydrotrypsin; conditions: PAI-1 2 nM preincubated with compound, SPR; read-out: Apparent KD (nM) ± SEM
Target sequence in this assay (P05121 24-402): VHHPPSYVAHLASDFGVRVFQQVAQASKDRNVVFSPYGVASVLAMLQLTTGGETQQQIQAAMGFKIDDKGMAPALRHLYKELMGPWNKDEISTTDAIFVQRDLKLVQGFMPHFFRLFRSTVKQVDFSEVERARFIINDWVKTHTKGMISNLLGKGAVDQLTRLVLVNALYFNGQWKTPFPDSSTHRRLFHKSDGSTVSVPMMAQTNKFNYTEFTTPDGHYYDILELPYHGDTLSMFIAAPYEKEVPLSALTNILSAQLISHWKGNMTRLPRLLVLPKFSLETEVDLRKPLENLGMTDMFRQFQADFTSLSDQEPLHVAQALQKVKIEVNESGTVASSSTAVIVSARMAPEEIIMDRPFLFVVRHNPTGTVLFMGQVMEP

[3] = molecular target: T1, recombinant active human PAI-1; test: pH dependence of PAI-1 inhibition, fluorogenic uPA (or tPA) assay; assay type: biochemical
PAI-1/vitronectin = PAI-1/vitronectin (Homo sapiens (Human), UniProt P05121); test: Inhibition of PAI-1 in the presence of vitronectin, fluorogenic uPA assay; assay type: biochemical
[4] = molecular target: anti-thrombin III (ATIII) (Homo sapiens (Human), UniProt P01008); test: Specificity assay on anti-thrombin III (thrombin activity); assay type: biochemical; conditions: pH 7.5 or pH 8.5, with heparin
PAI-1 [5] = test: PAI-1 activity assay in ex vivo plasma with and without vitronectin; assay type: biochemical; conditions: plasma of PAI-1 null or PAI-1/vitronectin null mice, 20 nM PAI-1
active murine PAI-1 = active murine PAI-1 (Mus musculus (Mouse), UniProt P22777); test: In vivo efficacy in transgenic mice that overexpress PAI-1, active PAI-1 in plasma; conditions: 3, 10, 30 mg/kg into the IVC, 1 hour
C57BL/6J and 129 mice = test: Oral PAI-039 in chow for two weeks, plasma PAI-1 activity and lipid profiles; assay type: in vivo, mouse
PAI-1 null mice = test: Oral PAI-039 in PAI-1 null mice, lipid analysis; assay type: in vivo, mouse; conditions: two weeks in chow
PAI-1 [6] = molecular target: T2, PAI-1; conditions: cited from earlier work
Target sequence in this assay (P05121 24-402, species assumed): as the sequence (P05121 24-402) above

T1 sequence (P05121 24-402): as above
Sequence of PAI-1/vitronectin (P05121 24-402): as above
Sequence of anti-thrombin III (ATIII) (P01008 33-464, species assumed): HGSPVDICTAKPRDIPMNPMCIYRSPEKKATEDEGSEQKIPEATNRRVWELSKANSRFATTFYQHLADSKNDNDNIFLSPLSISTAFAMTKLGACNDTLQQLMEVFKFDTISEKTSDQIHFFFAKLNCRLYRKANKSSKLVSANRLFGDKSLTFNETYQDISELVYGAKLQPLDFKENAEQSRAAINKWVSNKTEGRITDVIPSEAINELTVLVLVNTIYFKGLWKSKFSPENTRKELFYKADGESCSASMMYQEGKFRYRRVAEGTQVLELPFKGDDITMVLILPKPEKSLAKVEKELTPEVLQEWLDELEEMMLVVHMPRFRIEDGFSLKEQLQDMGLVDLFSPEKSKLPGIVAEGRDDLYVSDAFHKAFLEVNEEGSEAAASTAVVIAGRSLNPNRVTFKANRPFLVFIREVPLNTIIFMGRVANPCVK
Sequence of active murine PAI-1 (P22777 23-402): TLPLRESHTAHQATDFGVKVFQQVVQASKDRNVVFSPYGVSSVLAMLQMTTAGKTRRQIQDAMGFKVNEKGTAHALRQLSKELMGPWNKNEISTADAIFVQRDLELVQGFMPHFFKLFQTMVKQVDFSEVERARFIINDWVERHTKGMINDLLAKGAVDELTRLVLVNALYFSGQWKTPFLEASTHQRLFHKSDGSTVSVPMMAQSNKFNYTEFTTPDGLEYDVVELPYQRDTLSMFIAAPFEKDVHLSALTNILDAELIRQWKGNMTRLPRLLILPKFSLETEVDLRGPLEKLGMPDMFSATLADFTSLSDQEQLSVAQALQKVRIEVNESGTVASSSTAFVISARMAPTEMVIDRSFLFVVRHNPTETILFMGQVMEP

SMILES | IC50 [1] | Kd (PAI-1 [2]) | IC50 ([3]; pH 6.5) | effect of pH on PAI-1 inhibition (in words) ([3]; pH 6.5 to 8.5) | IC50 ([3]; pH 7.5) | IC50 ([3]; pH 8.5) | inhibition of PAI-1 in the presence of vitronectin (in words) (PAI-1/vitronectin; 200 nM vitronectin, pH 7.5 and pH 8.5) | change of IC50 in the presence of vitronectin (PAI-1/vitronectin; at each pH (7.5 and 8.5)) | effect on ATIII activity (in words) [4] | PAI-1 inhibition in plasma with or without vitronectin (in words) (PAI-1 [5]) | active PAI-1 in plasma after treatment (in words) (active murine PAI-1) | HDL cholesterol increase (C57BL/6J and 129 mice; 129) | VLDL decrease (C57BL/6J and 129 mice; 129) | HDL cholesterol increase (C57BL/6J and 129 mice; C57BL/6J) | VLDL decrease (C57BL/6J and 129 mice; C57BL/6J) | plasma level of active PAI-1 (C57BL/6J and 129 mice; C57BL/6J mice, 5 mg PAI-039/gram of chow, two weeks) | VLDL average decrease (C57BL/6J and 129 mice; average of C57BL/6J and 129) | HDL higher, average increase for C57BL/6J and 129 mice (C57BL/6J and 129 mice; average of both strains) | effect on metabolism (lipid profile) in PAI-1 null mice (in words) (PAI-1 null mice) | inhibition of vitronectin bound PAI-1 (in words) (PAI-1 [6])
O=C(OCCOC(=O)c1cc(O)c(O)c(O)c1)c1cc(O)c(O)c(O)c1 [CDE-008] | 370 nM | 23 ± 1 nM | 325000 nM | more effective inhibitor at pH 8.5 than at pH 7.5 | 288 nM | 64 nM | inhibits PAI-1 in the presence of vitronectin at both pH 7.5 and pH 8.5 | 1 log value | no effect | – | – | – | – | – | – | – | – | – | – | –
O=C(OC[C@H]1OC(OC(=O)c2cc(O)c(O)c(O)c2)[C@H](OC(=O)c2cc(O)c(O)c(O)c2)[C@@H](OC(=O)c2cc(O)c(O)c(O)c2)[C@H]1OC(=O)c1cc(O)c(O)c(O)c1)c1cc(O)c(O)c(O)c1 (stereo partly drawn) [CDE-066] | – | – | – | – | – | – | – | – | – | inhibited PAI-1 equally well in plasma with or with out physiologic vitronectin | dose-dependent decrease in active PAI-1 | – | – | – | – | – | – | – | – | –
O=C(O)C(=O)c1cn(Cc2ccccc2)c2ccc(-c3ccc(OC(F)(F)F)cc3)cc12 [PAI-039, tiplaxtinin] | – | – | – | – | – | – | – | – | – | only inhibitory in plasma that lacks vitronectin | – | 45% | 35% | 11% | 49% | 0.37 ± 0.08 ng/mL | 42% | approximately 28% | no significant effect | does not inhibit vitronectin bound PAI-1
